# Measurements published in patent publication US8946201B2, “Methods for inhibiting TGF-β” (Saint Louis University, priority 2007, dated 2015).
# Test system: TβR-II
# Experiment: TGF-β1-induced degradation of TβR-II, Western blot
# Format: cell-based
# Description: (E) Cells were treated with several concentrations of cholesterol (a,b) or LDL (c,d) as indicated in the presence and absence of 1% β-CD at 37° C. for 1 hr and further incubated with 50 pM TGF-β for 1 hr. The cell lysates were then subjected to 7.5% SDS-PAGE and Western blot analysis using antibodies to TβR-II and α-actin (a,c). The relative intensities of TβR-II and α-actin on the blot were quantified by densitometry (b,d). The ratio of the relative intensities of TβR-II and α-actin in cells treated without TGF-β1 was taken as the 100% level of TβR-II.
# (F, G) Cells were treated with or without 1 μM lovastatin/fluvastatin or nystatin (25 μg/ml)/cholesterol (50 μg/ml) at 37° C. for 16 hr or 1 hr, respectively. The treated cells were directly analyzed by sucrose density gradient ultracentrifugation analysis (F) or further incubated with 50 pM TGF-β at 37° C. for several time periods as indicated (G). Western blot analysis of the sucrose density gradient fractions (F) and of TGF-β1-treated cell lysates (G) was performed using antibody to TβR-II. The relative levels of TβR-II and α-actin were quantified by densitometry. Fractions ⅘ and 7 represent lipid raft/caveolae and non-lipid raft fractions, respectively. […] The quantitative data from three independent analyses is shown (G, bottom). […]
# Cells grown to near confluence on 12-well cluster dishes were treated with cholesterol or LDL in serum-free DMEM (vol.=0.5 ml/well) at 37° C. for 1 hr. […] Treated cells were lysed and cell lysates were analyzed by 7.5% SDS-PAGE and Western blot analysis using anti-Smad2, anti-P-Smad2, anti-caveolin-1, anti-TβR-I (alk5) or anti-TβR-II antibodies as described previously (30). […]
# Lipid raft/caveolae-mediated endocytosis of receptor-bound TGF-β results in rapid degradation of TGF-β1 and suppression of TGF-β responsiveness. […] To test this, we analyzed the lipid raft/caveolae and non-lipid raft localization of TβR-I and TβR-II in the plasma membrane of cells treated with or without cholesterol (50 μg/ml) using sucrose density gradient ultracentrifugation analysis. […]
smiles,measurement,setting,value
CC(C)CCC[C@@H](C)[C@H]1CC[C@H]2[C@@H]3CC=C4C[C@@H](O)CC[C@]4(C)[C@H]3CC[C@]12C [cholesterol],"TβR-II degradation, treatment alone","cholesterol 10 μg/ml or LDL 15 μg protein/ml, without TGF-β1",did not induce
same,enhancement of TGF-β1-induced degradation of TβR-II,"cholesterol 10 μg/ml, LDL 15 μg protein/ml, 1 hr, then 50 pM TGF-β 1 hr",70%
